No end group written: not given here.
Test system: S. epidermidis
Test: Peptide bacterial killing assay
Format: cell-based, Staphylococcus epidermidis
Settings: S. epidermidis Δcap versus wild-type; approximately 10^5 cells; 0-40 μg/ml peptide; 2 hours at 37° C.; survivors counted by plating
Method: S. epidermidis cultures were harvested, washed with PBS buffer, and resuspended in 10 mM sodium phosphate buffer (pH 7.0). Bacterial killing assays were performed using a final concentration of approximately 10^5 S. epidermidis cells in each sample. Antimicrobial peptides were dissolved in the following solutions: human β-defensin 3, 10 mM acetic acid, and LL-37, 10% acetonitrile with 0.1% trifluoroacetic acid. The bacteria were exposed to a range of antimicrobial peptide concentrations (0, 5, 10, 20, 30, and 40 μg/ml). An equal volume of the respective peptide dilution buffer was applied to control samples. Samples were incubated at 37° C. for 2 hours and appropriate dilution series of the samples were plated on TSB agar. Survivor S. epidermidis cells were enumerated after 24 hours of incubation at 37° C. The percentage of killed S. epidermidis was calculated using the formula (1−[CFUpeptide/CFUcontrol])×100.
Resistance to cationic antimicrobial peptides was determined by incubating washed S. epidermidis cells (approximately 10^5) with LL-37 or human β-defensin 3 in various concentrations of antimicrobial peptides for 2 hours at 37° C. Thereafter, S. epidermidis survivor cells were counted by plating. Results are shown as dose-response curves. […] Values of significance were calculated against the wild-type (for Δcap) and Δcap (for capBCAD) strains.

## LL-37 (LLGDFFRKSKEKIGKEFKRIVQRIKDFLRNLVPRTES; Antibacterial peptide LL-37; UniProt P49913 134-170, looked up) [representative cationic antibacterial peptide from human skin and neutrophil specific granules]
  resistance of the cap mutant strain to antibacterial peptide: significantly reduced resistance

## human β-defensin 3 (GIINTLQKYYCRVRGGRCAVLSCLPKEEQIGKCSTRGRKCCRRKK; ends and bridges not checked; cysteine pairing not given here; UniProt P81534 23-67, looked up) [representative cationic antibacterial peptide from human skin and neutrophil specific granules]
  resistance of the cap mutant strain to antibacterial peptide: significantly reduced resistance

Reference: patent US8921071B2, “Targeting poly-gamma-glutamic acid to treat Staphylococcus epidermidis and related infections” (priority 2005, dated 2014)
